Active and inactive are the calls of the source. The rule behind the calls is not given here.
Tests used:
L1210 [1] = test: Cytotoxicity against mouse L1210 cells; type: functional; conditions: for IC50: Mus musculus
P388 [2] = test: Antitumor activity against mouse P388 cells xenografted in mouse assessed as increase in life span at 50 mg/kg/day, ip after 9 days; type: functional; conditions: route intraperitoneal
P388 [3] = test: Antitumor activity against mouse P388 cells xenografted in mouse assessed as increase in life span at 12.5 mg/kg/day, ip after 9 days; type: functional; conditions: route intraperitoneal
B16 [4] = test: Antitumor activity against mouse B16 cells xenografted in mouse assessed as increase in life span at 16 mg/kg/day, ip after 9 days; type: functional; conditions: route intraperitoneal
L1210 [5] = test: Inhibition of DNA synthesis in mouse L1210 cells; type: functional; conditions: read-out: ID50 (the source's name)
L1210 [6] = test: Inhibition of RNA synthesis in mouse L1210 cells; type: functional; conditions: read-out: ID50 (the source's name)
L1210 [7] = test: Inhibition of RNA synthesis in mouse L1210 cells at 10 nmole/ml; type: functional
B16 [8] = test: Antitumor activity against mouse B16 cells xenografted in mouse assessed as increase in life span at 0.5 to 1 mg/kg/day, ip after 9 days; type: functional; conditions: route intraperitoneal
L1210 [9] = test: Antitumor activity against mouse L1210 cells xenografted in mouse assessed as increase in life span at 1 mg/kg/day, ip after 9 days; type: functional; conditions: route intraperitoneal
L1210 [10] = test: Inhibition of protein synthesis in mouse L1210 cells; type: functional, cell-based
P388 [11] = test: Antitumor activity against mouse P388 cells xenografted in mouse assessed as increase in life span at 1 mg/kg/day, ip after 9 days; type: functional; conditions: route intraperitoneal
P388 [12] = test: Antitumor activity against mouse P388 cells xenografted in mouse assessed as increase in life span at 3.1 mg/kg/day, ip after 9 days; type: functional; conditions: route intraperitoneal
P388 [13] = test: Antitumor activity against mouse P388 cells xenografted in mouse assessed as increase in life span at 4 mg/kg/day, ip after 9 days; type: functional; conditions: route intraperitoneal
P388 [14] = test: Antitumor activity against mouse P388 cells xenografted in mouse assessed as increase in life span at 6.3 mg/kg/day, ip after 9 days; type: functional; conditions: route intraperitoneal
P388 [15] = test: Antitumor activity against mouse P388 cells xenografted in mouse assessed as increase in life span at 20 mg/kg/day, ip after 9 days; type: functional; conditions: route intraperitoneal
L1210 [16] = test: Antitumor activity against mouse L1210 cells xenografted in mouse assessed as increase in life span at 20 mg/kg/day, ip after 9 days; type: functional; conditions: route intraperitoneal
P388 [17] = test: Antitumor activity against mouse P388 cells xenografted in mouse assessed as increase in life span at 25 mg/kg/day, ip after 9 days; type: functional; conditions: route intraperitoneal
P388 [18] = test: Antitumor activity against mouse P388 cells xenografted in mouse assessed as increase in life span at 8 mg/kg/day, ip after 9 days; type: functional; conditions: route intraperitoneal
[19] = L1210, read-out: ID50 (the source's name)

CCO[C@H]1C[C@](C)(O)[C@H](C(=O)OC)c2cc3c(c(O)c21)C(=O)c1c(O)cc2c(c1C3=O)O[C@@H]1O[C@@]2(C)[C@H](O)[C@@H](N(C)C)[C@@H]1O
IC50 (L1210 [1]; L1210, read-out: ID50): 0.16 µg/mL

COC(=O)[C@@H]1c2cc3c(c(O)c2CC[C@]1(C)O)C(=O)c1c(O)cc2c(c1C3=O)O[C@@H]1O[C@@]2(C)[C@H](O)[C@@H](N(C)C)[C@@H]1O
ID95 (L1210 [1]): 1510 nM
IC50 (L1210 [1]; [19]): 580 nM
Activity (P388 [2]): 27%

CCO[C@H]1C[C@@](C)(O)[C@H](C(=O)OC)c2cc3c(c(O)c21)C(=O)c1c(O)cc2c(c1C3=O)O[C@@H]1O[C@@]2(C)[C@H](O)[C@@H](N(C)C)[C@@H]1O
IC50 (L1210 [1]; L1210, read-out: ID50): 0.15 µg/mL
Activity (P388 [3]): 70%

CO[C@H]1C[C@](C)(O)Cc2cc3c(c(O)c21)C(=O)c1c(O)cc2c(c1C3=O)O[C@@H]1O[C@@]2(C)[C@H](O)[C@@H](N(C)C)[C@@H]1O
IC50 (L1210 [1]; L1210, read-out: ID50): 0.41 µg/mL
Activity (B16 [4]): 105%
Activity (P388 [3]): 76%
IC50 (L1210 [5]): 11600 nM
IC50 (L1210 [6]): 8300 nM
inhibition (INH) (L1210 [7]): 91.2%

COC(=O)[C@@H]1c2cc3c(c(O)c2[C@@H](O[C@@H]2O[C@@H](C)[C@H](OC)[C@@](C)(OC)[C@H]2OC)C[C@]1(C)O)C(=O)c1c(O)cc2c(c1C3=O)O[C@@H]1O[C@@]2(C)[C@H](O)[C@@H](N(C)C)[C@@H]1O [NOGALAMYCIN]
ID95 (L1210 [1]): 0.18 µg/mL
IC50 (L1210 [1]; L1210, read-out: ID50): 0.078 µg/mL
Activity (B16 [8]): 71%
Activity (L1210 [9]): 30%
Activity (L1210 [10]): inactive
IC50 (L1210 [5]): 3300 nM
Activity (P388 [11]): 49%
IC50 (L1210 [6]): 400 nM
inhibition (INH) (L1210 [7]): 99.9%

CCCO[C@H]1C[C@@](C)(O)[C@H](C(=O)OC)c2cc3c(c(O)c21)C(=O)c1c(O)cc2c(c1C3=O)O[C@@H]1O[C@@]2(C)[C@H](O)[C@@H](N(C)C)[C@@H]1O
IC50 (L1210 [1]; L1210, read-out: ID50): 0.3 µg/mL

CCCO[C@H]1C[C@](C)(O)Cc2cc3c(c(O)c21)C(=O)c1c(O)cc2c(c1C3=O)O[C@@H]1O[C@@]2(C)[C@H](O)[C@@H](N(C)C)[C@@H]1O
IC50 (L1210 [1]; L1210, read-out: ID50): 0.33 µg/mL
Activity (P388 [12]): 50%

CC(C)O[C@H]1C[C@@](C)(O)Cc2cc3c(c(O)c21)C(=O)c1c(O)cc2c(c1C3=O)O[C@@H]1O[C@@]2(C)[C@H](O)[C@@H](N(C)C)[C@@H]1O
Activity (P388 [13]): 20%

Cc1ccc2c(O)c3c(cc2c1)C(=O)c1c2c(cc(O)c1C3=O)[C@@]1(C)O[C@@H](O2)[C@@H](O)[C@H](N(C)C)[C@H]1O [NOGARENE]
ID95 (L1210 [1]): 370 nM
IC50 (L1210 [1]; [19]): 220 nM
Activity (P388 [3]): 17%

CCCO[C@H]1C[C@@](C)(O)Cc2cc3c(c(O)c21)C(=O)c1c(O)cc2c(c1C3=O)O[C@@H]1O[C@@]2(C)[C@H](O)[C@@H](N(C)C)[C@@H]1O
IC50 (L1210 [1]; L1210, read-out: ID50): 0.1 µg/mL
Activity (P388 [14]): 34%

CO[C@H]1[C@H](O[C@H]2C[C@](C)(O)[C@H](C(=O)O)c3cc4c(c(O)c32)C(=O)c2c(O)cc3c(c2C4=O)O[C@@H]2O[C@@]3(C)[C@H](O)[C@@H](N(C)C)[C@@H]2O)O[C@@H](C)[C@H](OC)[C@@]1(C)OC [NOGALAMYCINIC ACID]
ID95 (L1210 [1]): 1.94 µg/mL
IC50 (L1210 [1]; L1210, read-out: ID50): 1 µg/mL
Activity (P388 [15]): 56%
Activity (L1210 [16]): 18%
inhibition (INH) (L1210 [7]): 86.7%

CCN(CC)[C@H]1C[C@](C)(O)[C@H](C(=O)OC)c2cc3c(c(O)c21)C(=O)c1c(O)cc2c(c1C3=O)O[C@@H]1O[C@@]2(C)[C@H](O)[C@@H](N(C)C)[C@@H]1O
Activity (P388 [17]): 38%

COC(=O)[C@@H]1c2cc3c(c(O)c2[C@@H](SC)C[C@]1(C)O)C(=O)c1c(O)cc2c(c1C3=O)O[C@@H]1O[C@@]2(C)[C@H](O)[C@@H](N(C)C)[C@@H]1O
Activity (P388 [18]): 37%

Source: ChEMBL document CHEMBL1158657, “Improved antitumor activity by modification of nogalamycin” (1979)
